Experimental data published in ChEMBL document CHEMBL1127807 (J Med Chem, 1994).

How the values were obtained:
[1] = target: Opioid receptors; mu/kappa/delta (Homo sapiens, UniProt P41145+P41143+P35372); experiment: Tested for the binding affinity against the opioid receptor in guinea pig brain using [3H]bremazocine; design: species or system Cavia porcellus; settings: target entry is the homologue from another species
[2] = target: Mu-type opioid receptor (Cavia porcellus, UniProt P97266); experiment: Tested for the binding affinity against the Mu opioid receptor in guinea pig brain using [3H]-DAMGO
Sequence of Mu-type opioid receptor (P97266 whole entry): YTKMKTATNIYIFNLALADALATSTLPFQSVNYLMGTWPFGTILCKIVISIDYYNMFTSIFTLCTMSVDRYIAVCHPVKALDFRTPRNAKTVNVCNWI

[3] = target: Kappa-type opioid receptor (Cavia porcellus, UniProt P41144); experiment: Tested for the binding affinity against the Kappa opioid receptor in guinea pig brain using [3H]U-69593
Sequence of Kappa-type opioid receptor (P41144 whole entry): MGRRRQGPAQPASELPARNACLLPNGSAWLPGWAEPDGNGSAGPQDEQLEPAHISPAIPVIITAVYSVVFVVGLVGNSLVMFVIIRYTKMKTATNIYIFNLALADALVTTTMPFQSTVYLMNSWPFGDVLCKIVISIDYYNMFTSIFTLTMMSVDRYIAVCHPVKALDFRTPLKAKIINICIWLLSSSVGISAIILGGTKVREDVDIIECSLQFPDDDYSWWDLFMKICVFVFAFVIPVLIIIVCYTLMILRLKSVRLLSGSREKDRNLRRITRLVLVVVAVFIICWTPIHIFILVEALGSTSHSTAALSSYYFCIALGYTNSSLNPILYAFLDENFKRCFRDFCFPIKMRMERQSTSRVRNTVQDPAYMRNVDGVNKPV

Compound | IC50 [1] [nM] | IC50 [2] [nM] | IC50 [3] [nM]
Oc1ccc2c3c1OC1[C@@H](OCc4ccc5ccccc5c4)CCC4(O)C(C2)N(CC2CC2)CCC314 (some centres not stated) | 4.7 | 1.2 | 1.4
Oc1ccc2c3c1OC1[C@@H](OCc4cccc5ccccc45)CCC4(O)C(C2)N(CC2CC2)CCC314 (some centres not stated) | 7.3 | 1 | 4.4
Oc1ccc2c3c1OC1[C@@H](OCc4ccc(-c5ccccc5)cc4)CCC4(O)C(C2)N(CC2CC2)CCC314 (some centres not stated) | 28 | 10 | 12
Oc1ccc2c3c1OC1[C@@H](OCc4ccccc4)CCC4(O)C(C2)N(CC2CC2)CCC314 (some centres not stated) | 1.5 | 0.3 | 0.6
Oc1ccc2c3c1OC1[C@@H](OCc4c5ccccc5cc5ccccc45)CCC4(O)C(C2)N(CC2CC2)CCC314 (some centres not stated) | 45 | 6.6 | 34
Oc1ccc2c3c1OC1[C@H](OCc4ccc5ccccc5c4)CCC4(O)C(C2)N(CC2CC2)CCC314 (some centres not stated) | 5 | 1.7 | 1.5
Oc1ccc2c3c1OC1[C@H](OCc4ccc(-c5ccccc5)cc4)CCC4(O)C(C2)N(CC2CC2)CCC314 (some centres not stated) | 3.3 | 0.7 | 1.5
Oc1ccc2c3c1OC1[C@H](OCc4ccccc4)CCC4(O)C(C2)N(CC2CC2)CCC314 (some centres not stated) | 3.4 | 2.4 | 2
Oc1ccc2c3c1OC1[C@H](OCc4c5ccccc5cc5ccccc45)CCC4(O)C(C2)N(CC2CC2)CCC314 (some centres not stated) | 71 | 16 | 27
Oc1ccc2c3c1OC1[C@H](OCc4cccc5ccccc45)CCC4(O)C(C2)N(CC2CC2)CCC314 (some centres not stated) | 11 | 3.1 | 6.1
O=C(COC1CCC2(O)C3Cc4ccc(O)c5c4C2(CCN3CC2CC2)C1O5)C1[C@H]2C[C@@H]3C[C@@H](C[C@H]1C3)C2 (some centres not stated) | 13 | 6.6 | 3.3
Oc1ccc2c3c1O[C@H]1[C@H](O)CC[C@@]4(O)[C@@H](C2)N(CC2CC2)CC[C@]314 (stereo in doubt; 6) |  | 1.1 | 2.6
Oc1ccc2c3c1O[C@H]1[C@H](O)CC[C@@]4(O)[C@@H](C2)N(CC2CC2)CC[C@]314 (stereo in doubt; 7) |  | 0.5 | 1.8
